# Assay results from ChEMBL document CHEMBL5291721, “A preclinical secondary pharmacology resource illuminates target-adverse drug reaction associations of marketed drugs” (Nat Commun, 2023).
# How the values were obtained:
# [1] = target: 5-hydroxytryptamine receptor 2B (Homo sapiens, UniProt P41595); assay type: functional, cell-based
# [2] = target: T1, Thromboxane A2 receptor (Homo sapiens, UniProt P21731); assay type: functional, cell-based
# T1 sequence (P21731 whole entry): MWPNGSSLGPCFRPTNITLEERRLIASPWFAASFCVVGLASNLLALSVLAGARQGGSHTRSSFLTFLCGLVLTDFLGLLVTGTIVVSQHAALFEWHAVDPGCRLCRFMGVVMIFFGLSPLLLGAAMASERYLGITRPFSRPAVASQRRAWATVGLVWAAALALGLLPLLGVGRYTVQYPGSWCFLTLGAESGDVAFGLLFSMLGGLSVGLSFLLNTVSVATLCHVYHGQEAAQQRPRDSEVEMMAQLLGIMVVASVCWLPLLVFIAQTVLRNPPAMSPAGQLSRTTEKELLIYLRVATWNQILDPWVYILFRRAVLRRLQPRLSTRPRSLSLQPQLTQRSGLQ
# [3] = target: Histamine H3 receptor (Homo sapiens, UniProt Q9Y5N1)
# Histamine H3 receptor, sequence (Q9Y5N1 whole entry): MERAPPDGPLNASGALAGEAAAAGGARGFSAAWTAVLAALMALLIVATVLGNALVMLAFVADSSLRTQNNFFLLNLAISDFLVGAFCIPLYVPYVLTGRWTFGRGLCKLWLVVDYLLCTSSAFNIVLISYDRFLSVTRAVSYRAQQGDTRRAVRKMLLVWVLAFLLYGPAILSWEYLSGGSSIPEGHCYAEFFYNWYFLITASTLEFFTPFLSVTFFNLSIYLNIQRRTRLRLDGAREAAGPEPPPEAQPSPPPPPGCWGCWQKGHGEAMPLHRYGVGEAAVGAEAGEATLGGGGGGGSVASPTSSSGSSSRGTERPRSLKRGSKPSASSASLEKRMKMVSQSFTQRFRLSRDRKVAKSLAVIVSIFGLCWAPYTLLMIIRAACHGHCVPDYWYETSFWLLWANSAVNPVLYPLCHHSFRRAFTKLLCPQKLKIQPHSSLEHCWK
# [4] = target: Vascular endothelial growth factor receptor 2 (Homo sapiens, UniProt P35968); assay type: functional
# Vascular endothelial growth factor receptor 2, sequence (P35968 whole entry): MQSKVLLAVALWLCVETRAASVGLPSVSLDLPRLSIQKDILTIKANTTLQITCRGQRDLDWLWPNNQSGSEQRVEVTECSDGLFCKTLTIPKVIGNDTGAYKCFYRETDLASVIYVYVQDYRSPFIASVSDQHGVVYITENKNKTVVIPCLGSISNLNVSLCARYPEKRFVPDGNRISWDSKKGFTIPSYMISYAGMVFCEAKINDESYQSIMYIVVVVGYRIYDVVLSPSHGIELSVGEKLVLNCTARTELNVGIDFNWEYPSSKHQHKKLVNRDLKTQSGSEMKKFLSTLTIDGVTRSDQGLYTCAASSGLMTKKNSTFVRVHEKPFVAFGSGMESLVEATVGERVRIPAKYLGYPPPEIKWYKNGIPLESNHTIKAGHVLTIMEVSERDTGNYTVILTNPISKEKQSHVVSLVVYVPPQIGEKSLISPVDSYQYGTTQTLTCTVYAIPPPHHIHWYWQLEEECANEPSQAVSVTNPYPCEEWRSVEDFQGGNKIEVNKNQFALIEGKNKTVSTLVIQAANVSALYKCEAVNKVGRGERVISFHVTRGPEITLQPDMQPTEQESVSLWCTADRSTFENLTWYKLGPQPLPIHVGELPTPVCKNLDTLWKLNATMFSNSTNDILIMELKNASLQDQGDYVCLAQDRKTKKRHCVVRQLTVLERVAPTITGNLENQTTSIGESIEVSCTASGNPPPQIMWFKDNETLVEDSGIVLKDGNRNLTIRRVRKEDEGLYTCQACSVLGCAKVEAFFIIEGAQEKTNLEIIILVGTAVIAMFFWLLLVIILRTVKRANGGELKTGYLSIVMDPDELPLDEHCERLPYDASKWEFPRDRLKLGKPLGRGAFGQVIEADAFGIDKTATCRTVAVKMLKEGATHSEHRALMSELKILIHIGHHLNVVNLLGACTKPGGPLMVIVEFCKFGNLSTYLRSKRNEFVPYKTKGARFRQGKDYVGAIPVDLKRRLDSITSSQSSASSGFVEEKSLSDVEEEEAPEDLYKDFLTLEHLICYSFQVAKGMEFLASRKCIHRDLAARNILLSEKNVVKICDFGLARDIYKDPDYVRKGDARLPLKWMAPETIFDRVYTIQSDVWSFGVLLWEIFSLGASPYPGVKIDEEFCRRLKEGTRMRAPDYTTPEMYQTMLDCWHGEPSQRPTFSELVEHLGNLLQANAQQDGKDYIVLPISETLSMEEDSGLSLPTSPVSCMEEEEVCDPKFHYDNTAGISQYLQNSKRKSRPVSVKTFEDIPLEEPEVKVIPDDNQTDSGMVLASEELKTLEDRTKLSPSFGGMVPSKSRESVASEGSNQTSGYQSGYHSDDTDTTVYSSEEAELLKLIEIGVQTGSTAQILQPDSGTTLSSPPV
# [5] = target: cGMP-inhibited 3',5'-cyclic phosphodiesterase 3A (Homo sapiens, UniProt Q14432); assay type: functional
# cGMP-inhibited 3',5'-cyclic phosphodiesterase 3A, sequence (Q14432 whole entry): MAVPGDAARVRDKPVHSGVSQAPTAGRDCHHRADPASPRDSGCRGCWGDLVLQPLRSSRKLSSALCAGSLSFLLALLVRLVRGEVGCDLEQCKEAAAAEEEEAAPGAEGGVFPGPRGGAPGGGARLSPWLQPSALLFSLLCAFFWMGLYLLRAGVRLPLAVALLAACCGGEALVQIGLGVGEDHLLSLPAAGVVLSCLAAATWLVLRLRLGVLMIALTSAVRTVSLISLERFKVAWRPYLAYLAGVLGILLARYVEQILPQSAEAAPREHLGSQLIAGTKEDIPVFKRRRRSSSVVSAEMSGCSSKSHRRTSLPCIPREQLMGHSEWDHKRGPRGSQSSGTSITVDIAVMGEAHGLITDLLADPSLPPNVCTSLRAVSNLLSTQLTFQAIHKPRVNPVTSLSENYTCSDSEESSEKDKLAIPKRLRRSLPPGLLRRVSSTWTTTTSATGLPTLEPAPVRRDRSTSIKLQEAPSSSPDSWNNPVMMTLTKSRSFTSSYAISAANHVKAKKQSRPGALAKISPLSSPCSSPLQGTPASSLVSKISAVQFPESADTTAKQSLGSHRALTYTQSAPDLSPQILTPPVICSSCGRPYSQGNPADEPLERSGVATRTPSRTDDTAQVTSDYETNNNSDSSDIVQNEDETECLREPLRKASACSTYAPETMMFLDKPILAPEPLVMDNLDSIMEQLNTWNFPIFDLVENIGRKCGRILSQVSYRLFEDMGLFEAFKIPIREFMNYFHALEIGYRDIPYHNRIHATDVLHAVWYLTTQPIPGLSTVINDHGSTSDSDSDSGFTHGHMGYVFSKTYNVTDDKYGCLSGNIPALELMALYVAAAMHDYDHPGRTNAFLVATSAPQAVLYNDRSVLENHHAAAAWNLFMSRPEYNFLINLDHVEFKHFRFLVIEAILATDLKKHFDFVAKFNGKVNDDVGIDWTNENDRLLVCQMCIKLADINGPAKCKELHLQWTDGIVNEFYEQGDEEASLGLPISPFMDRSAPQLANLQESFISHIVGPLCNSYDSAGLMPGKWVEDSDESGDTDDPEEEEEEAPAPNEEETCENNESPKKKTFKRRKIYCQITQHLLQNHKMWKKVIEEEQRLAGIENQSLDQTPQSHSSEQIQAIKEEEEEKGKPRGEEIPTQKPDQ
# [6] = target: T2, Prostaglandin G/H synthase 1 (Homo sapiens, UniProt P23219); assay type: functional
# [7] = target: Prothrombin (Homo sapiens, UniProt P00734); assay type: functional
# [8] = target: Sodium-dependent serotonin transporter (Homo sapiens, UniProt P31645)
# Sodium-dependent serotonin transporter, sequence (P31645 whole entry): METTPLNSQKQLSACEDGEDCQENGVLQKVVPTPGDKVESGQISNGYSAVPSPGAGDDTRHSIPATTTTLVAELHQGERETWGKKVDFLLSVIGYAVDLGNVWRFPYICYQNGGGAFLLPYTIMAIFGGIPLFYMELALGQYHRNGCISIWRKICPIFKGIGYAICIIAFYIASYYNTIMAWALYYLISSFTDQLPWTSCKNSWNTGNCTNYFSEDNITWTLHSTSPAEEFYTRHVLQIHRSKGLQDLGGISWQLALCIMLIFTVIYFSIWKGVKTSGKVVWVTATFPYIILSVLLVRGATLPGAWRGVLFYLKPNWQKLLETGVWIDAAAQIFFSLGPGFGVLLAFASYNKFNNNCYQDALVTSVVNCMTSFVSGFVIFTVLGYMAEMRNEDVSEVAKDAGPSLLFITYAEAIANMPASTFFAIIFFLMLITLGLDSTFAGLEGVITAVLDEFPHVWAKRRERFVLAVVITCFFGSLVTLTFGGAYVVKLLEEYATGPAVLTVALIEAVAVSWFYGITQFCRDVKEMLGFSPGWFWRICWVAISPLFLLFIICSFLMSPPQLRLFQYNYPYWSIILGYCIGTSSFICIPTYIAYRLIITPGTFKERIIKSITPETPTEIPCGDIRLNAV
# [9] = target: T2, Prostaglandin G/H synthase 1; assay type: functional; remark: listed apart in the source
# [10] = target: Acetylcholinesterase (Homo sapiens, UniProt P22303); assay type: functional
# Acetylcholinesterase, sequence (P22303 whole entry): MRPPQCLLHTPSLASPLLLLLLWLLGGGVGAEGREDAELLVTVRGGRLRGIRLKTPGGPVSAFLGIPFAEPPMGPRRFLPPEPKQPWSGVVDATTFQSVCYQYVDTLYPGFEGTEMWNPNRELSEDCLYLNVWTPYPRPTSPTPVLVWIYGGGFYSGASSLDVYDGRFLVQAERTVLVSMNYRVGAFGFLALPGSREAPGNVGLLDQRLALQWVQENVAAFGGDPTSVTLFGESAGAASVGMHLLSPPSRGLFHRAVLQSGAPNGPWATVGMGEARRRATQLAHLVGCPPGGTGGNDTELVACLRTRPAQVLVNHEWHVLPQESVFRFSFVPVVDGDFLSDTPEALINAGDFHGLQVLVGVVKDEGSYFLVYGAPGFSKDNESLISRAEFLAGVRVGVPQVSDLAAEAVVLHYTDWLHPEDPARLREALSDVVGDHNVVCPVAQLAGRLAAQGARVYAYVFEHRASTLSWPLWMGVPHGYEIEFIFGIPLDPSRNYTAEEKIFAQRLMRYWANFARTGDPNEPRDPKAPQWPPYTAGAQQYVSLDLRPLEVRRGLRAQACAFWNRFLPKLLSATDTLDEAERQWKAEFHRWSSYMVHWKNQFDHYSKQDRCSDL
# [11] = target: T3, Amine oxidase [flavin-containing] A (Homo sapiens, UniProt P21397); assay type: functional
# T3 sequence (P21397 whole entry): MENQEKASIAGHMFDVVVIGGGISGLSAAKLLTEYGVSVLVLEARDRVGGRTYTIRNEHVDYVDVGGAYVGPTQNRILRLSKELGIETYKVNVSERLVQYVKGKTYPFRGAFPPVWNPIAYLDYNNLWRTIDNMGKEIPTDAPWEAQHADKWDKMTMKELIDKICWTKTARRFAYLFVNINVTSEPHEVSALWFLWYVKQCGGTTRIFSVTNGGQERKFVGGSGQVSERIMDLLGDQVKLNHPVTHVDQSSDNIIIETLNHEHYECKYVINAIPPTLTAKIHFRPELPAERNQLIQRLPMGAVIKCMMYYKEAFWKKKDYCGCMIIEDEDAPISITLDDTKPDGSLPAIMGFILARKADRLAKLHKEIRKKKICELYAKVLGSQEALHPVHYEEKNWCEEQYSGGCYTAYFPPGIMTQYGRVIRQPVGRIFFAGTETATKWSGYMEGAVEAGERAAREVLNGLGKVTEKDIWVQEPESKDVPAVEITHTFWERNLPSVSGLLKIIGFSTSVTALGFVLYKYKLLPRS
# [12] = target: T4, Muscarinic acetylcholine receptor M1 (Homo sapiens, UniProt P11229); assay type: functional, cell-based
# T4 sequence (P11229 whole entry): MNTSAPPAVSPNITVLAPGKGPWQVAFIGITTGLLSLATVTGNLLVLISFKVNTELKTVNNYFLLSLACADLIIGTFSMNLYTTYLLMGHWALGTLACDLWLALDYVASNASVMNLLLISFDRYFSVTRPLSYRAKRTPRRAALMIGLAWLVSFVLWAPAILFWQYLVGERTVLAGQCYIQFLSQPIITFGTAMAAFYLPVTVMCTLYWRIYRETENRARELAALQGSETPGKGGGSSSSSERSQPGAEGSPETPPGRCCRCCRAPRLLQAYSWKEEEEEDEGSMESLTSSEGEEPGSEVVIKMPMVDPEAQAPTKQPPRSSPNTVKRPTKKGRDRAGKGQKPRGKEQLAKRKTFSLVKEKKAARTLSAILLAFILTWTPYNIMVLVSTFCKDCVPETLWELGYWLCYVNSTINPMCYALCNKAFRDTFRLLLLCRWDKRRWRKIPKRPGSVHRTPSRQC
# [13] = target: T5, Progesterone receptor (Homo sapiens, UniProt P06401)
# T5 sequence (P06401 whole entry): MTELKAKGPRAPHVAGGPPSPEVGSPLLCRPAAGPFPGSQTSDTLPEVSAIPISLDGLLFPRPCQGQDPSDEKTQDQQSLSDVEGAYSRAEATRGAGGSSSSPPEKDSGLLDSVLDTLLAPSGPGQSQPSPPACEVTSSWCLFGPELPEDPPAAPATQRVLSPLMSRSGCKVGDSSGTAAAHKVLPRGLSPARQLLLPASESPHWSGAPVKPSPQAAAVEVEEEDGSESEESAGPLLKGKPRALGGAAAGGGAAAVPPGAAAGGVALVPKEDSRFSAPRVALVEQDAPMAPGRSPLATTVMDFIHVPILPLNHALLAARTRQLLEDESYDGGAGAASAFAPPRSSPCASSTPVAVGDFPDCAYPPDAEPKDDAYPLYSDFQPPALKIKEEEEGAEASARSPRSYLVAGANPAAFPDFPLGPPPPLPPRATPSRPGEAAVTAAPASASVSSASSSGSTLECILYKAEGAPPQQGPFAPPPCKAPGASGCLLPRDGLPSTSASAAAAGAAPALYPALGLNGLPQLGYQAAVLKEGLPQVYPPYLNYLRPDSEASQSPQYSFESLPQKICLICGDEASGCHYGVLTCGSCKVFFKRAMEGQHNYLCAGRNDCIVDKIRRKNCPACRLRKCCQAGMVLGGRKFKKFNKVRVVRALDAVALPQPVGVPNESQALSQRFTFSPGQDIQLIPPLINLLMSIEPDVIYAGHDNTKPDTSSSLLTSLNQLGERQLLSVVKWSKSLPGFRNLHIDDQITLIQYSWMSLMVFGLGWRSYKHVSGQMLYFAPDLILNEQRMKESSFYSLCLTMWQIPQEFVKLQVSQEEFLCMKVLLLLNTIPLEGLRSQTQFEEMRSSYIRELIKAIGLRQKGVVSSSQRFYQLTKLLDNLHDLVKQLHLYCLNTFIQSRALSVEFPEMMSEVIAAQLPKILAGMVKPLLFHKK
# [14] = target: D(3) dopamine receptor (Homo sapiens, UniProt P35462)
# D(3) dopamine receptor, sequence (P35462 whole entry): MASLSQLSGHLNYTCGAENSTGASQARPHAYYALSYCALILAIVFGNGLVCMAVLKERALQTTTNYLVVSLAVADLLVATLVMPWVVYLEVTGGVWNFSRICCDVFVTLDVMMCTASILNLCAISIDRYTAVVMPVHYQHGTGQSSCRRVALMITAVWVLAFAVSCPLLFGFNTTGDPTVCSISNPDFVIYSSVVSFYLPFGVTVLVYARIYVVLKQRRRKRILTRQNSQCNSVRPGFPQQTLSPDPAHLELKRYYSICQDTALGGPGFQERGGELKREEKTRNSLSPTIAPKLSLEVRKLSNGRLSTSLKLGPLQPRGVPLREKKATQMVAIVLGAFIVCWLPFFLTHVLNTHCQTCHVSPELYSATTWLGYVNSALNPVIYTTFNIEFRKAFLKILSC
# [15] = target: Voltage-gated inwardly rectifying potassium channel KCNH2 (Homo sapiens, UniProt Q12809); assay type: functional; conditions: read-out: AC50
# Note: assay procedure not described here.
# 5-hydroxytryptamine receptor 2B, sequence (P41595 whole entry): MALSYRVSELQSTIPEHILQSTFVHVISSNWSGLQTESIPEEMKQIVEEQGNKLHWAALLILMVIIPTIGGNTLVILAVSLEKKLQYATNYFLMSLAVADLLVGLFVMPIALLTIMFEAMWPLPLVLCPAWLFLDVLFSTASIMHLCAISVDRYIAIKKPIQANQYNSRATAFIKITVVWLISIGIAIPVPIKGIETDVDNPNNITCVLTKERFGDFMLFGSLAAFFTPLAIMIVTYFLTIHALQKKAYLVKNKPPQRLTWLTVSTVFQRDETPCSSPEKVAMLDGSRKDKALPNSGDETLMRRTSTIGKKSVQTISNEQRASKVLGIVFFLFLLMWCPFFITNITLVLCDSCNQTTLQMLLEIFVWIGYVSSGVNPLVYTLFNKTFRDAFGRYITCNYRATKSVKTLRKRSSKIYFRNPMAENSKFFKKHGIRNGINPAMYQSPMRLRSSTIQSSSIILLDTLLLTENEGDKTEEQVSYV
SMILES,AC50 [1] [µM],AC50 [2] [µM],AC50 [3] [µM],AC50 [4] [µM],AC50 [5] [µM],AC50 [6] [µM],AC50 [7] [µM],AC50 [8] [µM],AC50 [9] [µM],AC50 [10] [µM],AC50 [11] [µM],AC50 [12] [µM],AC50 [13] [µM],AC50 [14] [µM],AC50 [15] [µM]
CC(=O)Oc1c(C)c(C)c2c(c1C)CC[C@@](C)(CCC[C@H](C)CCC[C@H](C)CCCC(C)C)O2,> 30,> 30,> 30,> 30,0.933,> 30,> 30,> 30,> 30,> 30,> 30,> 30,> 30,> 30,> 30
N=C1CCCN1Cc1[nH]c(=O)[nH]c(=O)c1Cl,> 30,> 30,> 30,> 30,> 30,> 30,> 30,> 30,> 30,> 30,> 30,> 30,> 30,,> 30
CC(=O)[C@@]1(O)CC[C@H]2[C@@H]3C=C(C)C4=CC(=O)CC[C@]4(C)[C@H]3CC[C@@]21C,> 30,> 30,> 30,> 30,> 30,> 30,> 30,> 30,> 30,> 30,> 30,15.3,0.285,> 30,> 30
C[S+](CC[C@H](N)C(=O)[O-])C[C@H]1O[C@@H](n2cnc3c(N)ncnc32)[C@H](O)[C@@H]1O (some centres undefined) [ADEMETIONINE],> 30,> 30,> 30,19.4,> 30,> 30,> 30,> 30,> 30,> 30,> 30,> 30,> 30,> 30,
NC(=O)C[C@H](N)C(=O)O [ASPARAGINE],> 30,> 30,> 30,> 30,> 30,> 30,> 30,> 30,> 30,> 30,> 30,> 30,> 30,> 30,
CC1=C(/C=C/C(C)=C/C=C/C(C)=C/C=C/C=C(C)/C=C/C=C(C)/C=C/C2=C(C)CCCC2(C)C)C(C)(C)CCC1 [BETA CAROTENE],> 30,> 30,> 30,> 30,> 30,8.1,> 30,> 30,5.22,> 30,> 30,> 30,> 30,20.8,
NNc1nnc(NN)c2ccccc12 [DIHYDRALAZINE],> 30,> 30,> 30,> 30,> 30,0.344,> 30,> 30,0.434,> 30,26.4,> 30,,> 30,0.44
COc1ccc(C(=O)Nc2ccccc2CCC2CCCCN2C)cc1 (centres undefined) [ENCAINIDE],> 30,> 30,> 30,> 30,> 30,> 30,> 30,> 30,> 30,> 30,> 30,> 30,> 30,> 30,
NC1=NCC2c3ccccc3Cc3ccccc3N12 (centres undefined) [EPINASTINE],> 30,> 30,> 30,> 30,> 30,> 30,> 30,10.3,> 30,> 30,> 30,> 30,> 30,> 30,
Cc1cc(OP(=O)(O)O)c2ccccc2c1OP(=O)(O)O [MENADIOL SODIUM DIPHOSPHATE],> 30,> 30,> 30,> 30,> 30,> 30,> 30,> 30,> 30,> 30,> 30,> 30,> 30,> 30,
CCN(CC)CCc1nc(-c2ccccc2)no1 [OXOLAMINE],> 30,> 30,23.9,> 30,> 30,> 30,> 30,> 30,> 30,> 30,> 30,> 30,> 30,,> 30
OC(CCN1CCCCC1)(c1ccccc1)c1ccccc1 [PRIDINOL],> 30,> 30,> 30,> 30,> 30,> 30,> 30,> 30,> 30,> 30,> 30,0.0824,> 30,,8.8
CC(C)(C)NCC(O)COc1cccc2c1SCCC2 (centres undefined) [TERTATOLOL],> 30,> 30,> 30,> 30,> 30,> 30,> 30,17.3,> 30,> 30,> 30,> 30,> 30,,> 30
